Experimental data published in patent US20220040129A1, “TREATMENT OF HYPERAMMONEMIA IN PATIENTS WITH RENAL INSUFFICIENCY” (RECORDATI S.p.A., priority 2019, published 2022).
Like-named read-outs stand apart in the source and are kept apart here.

Legend:
[1] = CARIV-A-001 Part A: single ascending IV doses over 20 minutes in healthy subjects; type: in vivo, human; conditions: both sexes, human, plasma, iv
Method: This study was conducted in healthy male or female volunteers, at a single site to assess the safety and PK profile of an IV formulation of Carbaglu and to determine the absolute bioavailability of the current marketed oral formulation of Carbaglu.
The levels of CGA in plasma and urine were analysed using a fully validated method, which included LC-MS/MS analysis. The PK data were analysed based on a non-compartmental model. A model-based approach was implemented for the characterization of the PK properties of the IV formulation in order to estimate the level of PK exposure after different doses administered with different duration of infusion. […] The PK parameters were determined using SAS (version 9.3), and modelling of the PK data was performed using NONMEM (version 7.3, ICON Solutions). PART A: Mono-Centre, Randomized, Successive Groups, Double-Blind, Placebo-Controlled Study in Healthy Male and Female Subjects
Each cohort included a minimum of 3 and maximum of 5 subjects of each of the two genders.
Three loading doses of CGA over 20 minutes were tested by IV administration, 3.5 mg/kg, 5.0 mg/kg and 7.5 mg/kg. For each of these three doses, 6 subjects were administered CGA and 2 received the placebo.
Plasma concentrations of CGA were measured at 18 timepoints, including a sample preceding the start of the administration, and then between 10 minutes and 48 hours following the initiation of the IV infusion.
The PK analysis of Carbaglu was conducted by using standard non-compartmental approach.

plasma NH3 = assay: Rate of reduction of plasma NH3 over 36 hours, population with baseline NH3 over 100/150 micromol/L; type: in vivo, human
Excerpt: The two populations analyzed included: 1) Population with baseline plasma NH3 levels over 100 micromol/L in non-neonate or 150 micromol/L in neonate; 2) Propensity Matching Score (PMS) Population. […] These rates of decrease were confirmed to be statistically significant.

CYP2D6 = CYP2D6 (Homo sapiens, UniProt P10635); assay: In vitro CYP inhibition; type: in vitro ADME
Chain of CYP2D6 (P10635 whole entry): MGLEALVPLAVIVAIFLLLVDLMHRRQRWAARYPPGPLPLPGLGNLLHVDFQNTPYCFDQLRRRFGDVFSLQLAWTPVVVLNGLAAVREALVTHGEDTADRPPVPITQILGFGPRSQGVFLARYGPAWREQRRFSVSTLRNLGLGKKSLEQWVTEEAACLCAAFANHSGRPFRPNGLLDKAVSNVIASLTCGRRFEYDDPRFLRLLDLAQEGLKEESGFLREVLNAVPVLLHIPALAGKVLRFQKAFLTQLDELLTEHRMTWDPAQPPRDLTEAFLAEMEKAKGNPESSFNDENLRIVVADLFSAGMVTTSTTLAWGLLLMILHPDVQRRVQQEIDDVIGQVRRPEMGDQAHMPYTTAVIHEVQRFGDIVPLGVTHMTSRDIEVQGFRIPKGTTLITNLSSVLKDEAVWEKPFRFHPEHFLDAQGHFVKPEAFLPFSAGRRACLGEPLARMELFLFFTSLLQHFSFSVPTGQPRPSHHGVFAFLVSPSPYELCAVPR

[2] = Nonclinical safety study in rats: exposure; conditions: rat, in vivo
[3] = PK study comparing oral to IV CARBAGLU in 36 healthy volunteers; type: in vivo, human
CYP2C19 = CYP2C19 (Homo sapiens, UniProt P33261); assay: In vitro CYP inhibition; type: in vitro ADME
Chain of CYP2C19 (P33261 whole entry): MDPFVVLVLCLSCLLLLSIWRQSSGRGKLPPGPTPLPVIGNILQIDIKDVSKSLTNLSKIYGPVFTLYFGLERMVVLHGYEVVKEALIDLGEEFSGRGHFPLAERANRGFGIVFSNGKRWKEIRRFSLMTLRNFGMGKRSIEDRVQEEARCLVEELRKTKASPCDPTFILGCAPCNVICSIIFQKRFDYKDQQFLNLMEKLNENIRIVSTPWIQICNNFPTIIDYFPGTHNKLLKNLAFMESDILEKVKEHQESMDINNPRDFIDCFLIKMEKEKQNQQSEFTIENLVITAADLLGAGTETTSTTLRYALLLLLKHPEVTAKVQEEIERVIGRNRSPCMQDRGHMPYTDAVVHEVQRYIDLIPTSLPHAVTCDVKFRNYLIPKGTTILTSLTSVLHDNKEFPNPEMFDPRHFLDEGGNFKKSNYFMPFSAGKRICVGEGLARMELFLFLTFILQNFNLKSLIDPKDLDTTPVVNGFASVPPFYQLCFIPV

[4] = Pharmacokinetics in healthy subjects after oral administration (radiolabeled and non-radiolabeled); type: in vivo, human; conditions: for half-life / CL renal: in vivo; for half-life / CL renal / Tmax: po
[5] = Population PK model (two-compartment, zero order absorption); set-up: species or system human; conditions: value estimated in HVs, fixed in the model
Excerpt: A population PK model was developed using PK data collected from the PK study mentioned above. The data was collected after variable long treatment periods lasting more than a year in some cases, with different doses, and with different dosage regimens in both pediatric and adult volunteers (N=16).
The sparse drug concentrations (24 PK samples) were fitted using a two-compartment model with zero order absorption rate, which was also used to describe the PK time course in the PK study.
The final models for Clearance and Volume were:
Wherein CL is the value of the clearance in a patient, CLt is the typical value of the clearance in adult subjects, WT is the body weight, TM50 is the maturation half time, g is the Hill coefficient and Vt is the typical value of the volume in adult subjects.

[6] = single radiolabeled oral dose of 100 mg/kg

Compound `NC(=O)N[C@@H](CCC(=O)O)C(=O)O` [carglumic acid, N-carbamoyl-L-glutamic acid] has a Vd ([1]; 5 mg/kg, IV over 20 minutes, 5.0 mg/kg, read-out: Volume of Distribution (Vd), Mean) of 9.94 L/kg, a Vd ([1]; 5 mg/kg, IV over 20 minutes, 5.0 mg/kg, read-out: Volume of Distribution (Vd), Median) of 10.2 L/kg and a Vd ([1]; 5 mg/kg, IV over 20 minutes, 5.0 mg/kg, read-out: Volume of Distribution (Vd), Range) of 4.62 to 12.8 L/kg. The AUC(0-t) ([1]; 7.5 mg/kg, IV over 20 minutes, 7.5 mg/kg, read-out: AUC24h, Mean) was 21600 ng·h/mL, the AUC(0-t) ([1]; 7.5 mg/kg, IV over 20 minutes, 7.5 mg/kg, read-out: AUC24h, Median) was 20700 ng·h/mL and the AUC(0-t) ([1]; 7.5 mg/kg, IV over 20 minutes, 7.5 mg/kg, read-out: AUC24h, Range) was 19200 to 26900 ng·h/mL. It also gave an AUC(0-inf) ([1]; 7.5 mg/kg, IV over 20 minutes, 7.5 mg/kg, read-out: AUCinf, Mean) of 23900 ng·h/mL, an AUC(0-inf) ([1]; 7.5 mg/kg, IV over 20 minutes, 7.5 mg/kg, read-out: AUCinf, Median) of 23200 ng·h/mL and an AUC(0-inf) ([1]; 7.5 mg/kg, IV over 20 minutes, 7.5 mg/kg, read-out: AUCinf, Range) of 20200 to 29100 ng·h/mL. For the same compound, the AUC(0-t) ([1]; 7.5 mg/kg, IV over 20 minutes, 7.5 mg/kg, read-out: AUClast-timepoint, Mean) was 22600 ng·h/mL, the AUC(0-t) ([1]; 7.5 mg/kg, IV over 20 minutes, 7.5 mg/kg, read-out: AUClast-timepoint, Median) was 22100 ng·h/mL and the AUC(0-t) ([1]; 7.5 mg/kg, IV over 20 minutes, 7.5 mg/kg, read-out: AUClast-timepoint, Range) was 19600 to 27800 ng·h/mL. For the same compound, the clearance ([1]; 7.5 mg/kg, IV over 20 minutes, 7.5 mg/kg, read-out: Clearance (Cl), Mean) was 5.33 mL/min/kg, the clearance ([1]; 7.5 mg/kg, IV over 20 minutes, 7.5 mg/kg, read-out: Clearance (Cl), Median) was 5.33 mL/min/kg and the clearance ([1]; 7.5 mg/kg, IV over 20 minutes, 7.5 mg/kg, read-out: Clearance (Cl), Range) was 4.33 to 6.17 mL/min/kg. The Cmax ([1]; 7.5 mg/kg, IV over 20 minutes, 7.5 mg/kg, read-out: Cmax, Mean) was 22900 ng/mL, the Cmax ([1]; 7.5 mg/kg, IV over 20 minutes, 7.5 mg/kg, read-out: Cmax, Median) was 23200 ng/mL and the half-life ([1]; 7.5 mg/kg, IV over 20 minutes, 7.5 mg/kg, read-out: T1/2, Mean) was 24.8 h. For the same compound, the half-life ([1]; 7.5 mg/kg, IV over 20 minutes, 7.5 mg/kg, read-out: T1/2, Median) was 25.5 h, the half-life ([1]; 7.5 mg/kg, IV over 20 minutes, 7.5 mg/kg, read-out: T1/2, Range) was 15.3 to 35.4 h and the Vd ([1]; 7.5 mg/kg, IV over 20 minutes, 7.5 mg/kg, read-out: Volume of Distribution (Vd), Mean) was 11.2 L/kg. It also gave a Vd ([1]; 7.5 mg/kg, IV over 20 minutes, 7.5 mg/kg, read-out: Volume of Distribution (Vd), Median) of 10.8 L/kg, a Vd ([1]; 7.5 mg/kg, IV over 20 minutes, 7.5 mg/kg, read-out: Volume of Distribution (Vd), Range) of 7.02 to 17.5 L/kg and a half-life ([1]; IV over 20 minutes, across dose groups 3.5-7.5 mg/kg, read-out: Half-life, mean value (converted)) of 22 h. It also gave a half-life ([1]; IV over 20 minutes, each cohort, read-out: Half-life, range of cohort means) of 20.6 to 24.8 h, a Vd ([1]; IV over 20 minutes, each cohort, read-out: Volume of distribution (Vd), range of cohort means) of 9.3 to 11.2 L/kg and a clearance ([1]; IV over 20 minutes, in each cohort, read-out: Total body clearance, mean value (converted)) of 5.33 mL/min/kg. For the same compound, the Vd ([1]; IV over 20 minutes, read-out: Vss, range of cohort means) was 2.21 to 2.39 L/kg, the Vd ([1]; after IV administration, overall analysis on the three groups, read-out: Volume of distribution, median) was 10.2 L/kg and the half-life ([1]; after IV administration, read-out: Terminal half-life, median (converted)) was about 22 h. For the same compound, the half-life ([1]; after IV administration, read-out: Terminal half-life, range) was 7 to 36 h, the clearance ([1]; after IV administration, read-out: Total clearance, median) was 354 mL/min and the clearance ([1]; after IV administration, read-out: Total clearance, range) was 241 to 502 mL/min. The “Median time to achieve 50% reduction of plasma NH3” value (plasma NH3; baseline plasma NH3 over 100 micromol/L in non-neonate or 150 micromol/L in neonate) was 18 hours post dose, the “Speed of plasma NH3 reduction versus NH3 Scav alone group” value (plasma NH3; first 36 hours after treatment initiation, the two populations analyzed) was “statistically significantly faster” and the “Inhibition of CYP2D6” value (CYP2D6) was “not an inhibitor”. The AUC ([2]; read-out: AUC, exposure previously observed) was 258000 ng·h/mL, the Cmax ([2]; read-out: Cmax, exposure previously observed) was 52000 ng/mL and the “Mean fraction of the dose excreted in the urine” value ([3]; after IV administration) was 90%. The “Mean fraction of the dose excreted in the urine” value ([3]; after oral administration) was 7.5%, the bioavailability ([3]; human, in vivo, oral vs IV, 36 healthy volunteers, read-out: Mean absolute bioavailability) was 9.87% and the “Inhibition of CYP2C19” value (CYP2C19) was “not an inhibitor”. For the same compound, the 24-hour urinary excretion ([4]; after oral administration) was 4.5 % of the dose, the “Apparent total clearance, median” value ([4]; after oral administration) was 5.7 L/min and the “Apparent volume of distribution, median” value ([4]; after oral administration) was 2657 L. For the same compound, the “Apparent volume of distribution, median per kg” value ([4]; after oral administration) was 35.9 L/kg, the “Apparent volume of distribution, range” value ([4]; after oral administration) was 1616 to 5797 L and the half-life ([4]; human, after oral administration, read-out: Initial half-life (converted)) was about 5.6 h. The CL renal ([4]; human, after oral administration, read-out: Renal clearance, median) was 290 mL/min, the CL renal ([4]; human, after oral administration, read-out: Renal clearance, range) was 204 to 445 mL/min and the half-life ([4]; human, after oral administration, read-out: Terminal half-life (converted)) was about 22 h. The bioavailability ([4]; human, plasma, 100 mg/kg, oral, read-out: Absolute bioavailability) was 9.9%, the Tmax ([4]; human, plasma, read-out: Tmax, median) was 3 h and the Tmax ([4]; human, plasma, read-out: Tmax, range) was 2 to 4 h. For the same compound, the “Dose excreted unchanged in the urine” value [4, 6] was 9 % of the dose, the “Dose recovered unchanged in the feces” value [4, 6] was “up to 60 % of the dose” and the “CLt, typical value of the clearance in adult subjects” value [5] was 0.178.
